Data as given in ChEMBL document CHEMBL1201862, “PubChem BioAssay data set” (2004).
One block for each molecule: values may come before it. Active and inactive are the calls of the source.

Key:
Coagulation factor XII [1] = biological target: T1, Coagulation factor XII (Homo sapiens, UniProt P00748); assay: FXIIa inhibitor potency, concentration-response, biochemical (AID 716); type: functional
[2] = biological target: G-protein coupled receptor 55 (Homo sapiens, UniProt Q9Y2T6); assay: GPR55 agonists via beta-arrestin recruitment, primary screen, imaging, U2OS cells, beta-arrestin-GFP redistribution (AID 1961); type: functional
[3] = biological target: DNA damage-inducible transcript 3 protein (Mus musculus, UniProt P35639); type: functional, Cricetulus griseus
Coagulation factor XII [4] = biological target: T1, Coagulation factor XII; type: functional
[5] = inhibitors of intracellular T. cruzi replication, confirmation, NIH3T3 host cells, beta-gal luminescence (AID 2044); type: functional, cell-based;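 further: intracellular parasites grown in NIH/3T3 mouse fibroblasts as host cells; luminescent beta-galactosidase reporter signal from transgenic T. cruzi replicating inside host cells; inhibitors lower the luminescence signal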
[6] = cytotoxicity toward NIH3T3 fibroblasts, dose response, counter-screen, cell-based, ATP luminescence, mouse fibroblasts (AID 2010); type: functional;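 further: cells exposed to compound for about 90 hours before reading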
[7] = cytotoxicity in NIH/3T3 mouse fibroblasts, dose response, cytotoxicity control, cell-based, mouse embryonic fibroblasts, dry powder, set 2 (AID 493247); type: functional; conditions: Fibroblast

T1 sequence (P00748 20-372 limits assumed): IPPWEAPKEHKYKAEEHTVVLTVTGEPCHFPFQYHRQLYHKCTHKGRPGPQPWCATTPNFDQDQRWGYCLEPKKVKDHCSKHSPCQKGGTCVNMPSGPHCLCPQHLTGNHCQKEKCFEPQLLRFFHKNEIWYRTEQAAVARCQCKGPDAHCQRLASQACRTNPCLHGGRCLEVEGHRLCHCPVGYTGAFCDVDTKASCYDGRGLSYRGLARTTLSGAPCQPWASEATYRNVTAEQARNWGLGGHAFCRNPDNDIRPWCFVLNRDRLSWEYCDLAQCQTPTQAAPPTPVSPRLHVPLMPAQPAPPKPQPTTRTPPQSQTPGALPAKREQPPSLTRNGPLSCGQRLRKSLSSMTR
T1 sequence (P00748 373-615 limits assumed): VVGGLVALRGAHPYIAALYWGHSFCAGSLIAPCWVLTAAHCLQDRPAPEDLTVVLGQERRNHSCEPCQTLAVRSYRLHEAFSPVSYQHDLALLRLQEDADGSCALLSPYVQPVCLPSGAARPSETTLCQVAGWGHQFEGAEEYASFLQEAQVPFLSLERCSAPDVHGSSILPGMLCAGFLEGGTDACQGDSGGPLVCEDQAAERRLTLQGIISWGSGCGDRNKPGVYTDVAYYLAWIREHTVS
DNA damage-inducible transcript 3 protein, sequence (P35639 whole entry): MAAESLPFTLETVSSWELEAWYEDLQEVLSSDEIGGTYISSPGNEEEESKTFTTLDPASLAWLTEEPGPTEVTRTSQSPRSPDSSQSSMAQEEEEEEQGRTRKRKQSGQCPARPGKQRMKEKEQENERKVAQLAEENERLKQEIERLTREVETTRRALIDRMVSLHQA
G-protein coupled receptor 55, sequence (Q9Y2T6 whole entry): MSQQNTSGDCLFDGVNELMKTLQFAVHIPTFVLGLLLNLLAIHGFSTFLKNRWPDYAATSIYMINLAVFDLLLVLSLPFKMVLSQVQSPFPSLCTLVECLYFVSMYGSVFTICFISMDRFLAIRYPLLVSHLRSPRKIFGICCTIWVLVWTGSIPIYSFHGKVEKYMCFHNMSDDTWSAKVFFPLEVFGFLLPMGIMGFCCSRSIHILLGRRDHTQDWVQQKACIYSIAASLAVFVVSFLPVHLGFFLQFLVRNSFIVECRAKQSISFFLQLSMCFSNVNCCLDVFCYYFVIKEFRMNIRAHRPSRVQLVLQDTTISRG

Structure (SMILES): O=C(c1ccc(Cl)cc1)N1CCC(O)(CSc2ccc(Cl)cc2Cl)CC1
Absolute IC50 (CHOP) [3]: 10 µM

Structure (SMILES): CCCCCCCCCCCC(=O)N1CC(=O)NC(=O)C1
IC50 (Coagulation factor XII [4]): > 50 µM (inactive)

Structure (SMILES): CCCCCC(=O)N/N=C/c1ccc([N+](=O)[O-])o1
EC50 [5]: 0.183 µM (active)
EC50 [6]: > 60 µM (not active)
AC50 [7]: 26.6 µM (active)

Other lines, results leading:

IC50 (Coagulation factor XII [1]): > 50 µM (inactive)
Structure (SMILES): CN(CC(=O)Nc1cccnc1)S(=O)(=O)c1cc(Cl)ccc1Cl

EC50 [2]: 15.3 µM (inactive)
Structure (SMILES): CC(C)C[C@@H](CSc1ccc(Br)cc1)N1CCN(CC(C)C)CCC1=O
